From patent US20050009924A1 (priority 2003, published 2005)

Experiments:
human hepatoma G2 cells = test: Cytotoxicity assay (XTT colorimetric), Hep G2; assay type: cell-based; conditions: Homo sapiens, HepG2; 48 h of drug exposure
rat glioma C6 cells = test: Cytotoxicity assay (XTT colorimetric), C6 cells; assay type: cell-based; conditions: Rattus norvegicus, C6; 48 h of drug exposure
[1] = tested on: hepatitis B virus transfected hepatoma cell lines, HepG 2.2.15 cells; test: Cytotoxicity assay, 2.2.15 cells; assay type: cell-based, human; conditions: Homo sapiens, HepG2.2.15; 48 h of drug exposure
[2] = tested on: transcriptional activity of hTERT; test: SEAP reporter assay of hTERT expression, PhTERT-SEAP (hTERT-BJ1); assay type: cell-based, human; conditions: Homo sapiens, hTERT-BJ1, read-out: Relative SEAP activity (%)
Method in brief: (§1)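 SEAP activity, read as rate of 405 nm absorbance rise with 12 mM p-nitrophenyl phosphate in diethanolamine/MgCl2/homoarginine buffer after 65 °C, 10 min heat inactivation, reports hTERT or CMV promoter activity. G418-selected stable H1299 or hTERT-BJ1 reporter lines were exposed to drug for 24 h.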

[3] = tested on: transcriptional activity of hTERT; test: SEAP reporter assay of hTERT expression, PhTERT-SEAP (H1299); assay type: cell-based, human
Method in brief: as §1

[4] = MTT relative viability, PhTERT-SEAP (H1299) cells; conditions: human
[5] = MTT relative viability, PhTERT-SEAP (hTERT-BJ1) cells; conditions: human
Procedure: The tetrazolium reagent (MTT; 3-(4,5-di-methylthiazol)-2,5-diphenyl tetrazolium bromide, USB) was designed to yield a colored formazan upon metabolic reduction by viable cells. Approximately […] cells were plated onto each well of a 96-well plate and incubated in 5% CO2 at 37° C. for 24 h. To assess the in vitro cytotoxicity, each compound was dissolved in DMSO and prepared immediately before the experiments and was diluted into the complete medium before addition to cell cultures. Test compounds were then added to the culture medium for designated various concentrations. After 48 h, an amount of 25 μL of MTT was added to each well, and the samples were incubated at 37° C. for 4 h. A 100 μL solution of lysis buffer containing 20% SDS and 50% N,N-dimethylformamide was added to each well and incubated at 37° C. for another 16 h. The absorbency at 550 nm was measured using an ELISA reader.
Non small lung cancer cells H1299 (telomerase positive) were grown in RPMI 1640 media supplemented with 10% fetal bovine serum, 100 units/mL penicillin and 100 mg/mL streptomycin in a humidified atmosphere with 5% CO2 at 37° C. The hTERT immortalized hTERT-BJ1 (BD Biosciences Clontech)^39 were grown in DMEM media supplemented with 10% fetal calf serum, 100 units/mL penicillin and 100 mg/mL streptomycin, 1 mM sodium pyruvate, and 4 mM I-arginine in a humidified atmosphere with 5% CO2 at 37° C. Culture media were changed every 3 days. […] The stable clones derived from H1299 or hTERT-BJ1 were cultured using conditions that are similar to their parental cells.

[6] = tested on: iron-induced lipid peroxidation in rat brain homogenates; test: Iron-induced lipid peroxidation in rat brain homogenates; conditions: 10 mM

Question: Which IC50 (human hepatoma G2 cells) does the source give for `NCCCCCNc1cccc2c1C(=O)c1cccc(NCCCCCN)c1C2=O` [IVm, 1,5-Bis(aminopentylamino)-anthraquinone] here?
Answer: The IC50 was 17.4 ± 0.74 µM.

Question: What about the IC50 (rat glioma C6 cells) of the same molecule?
Answer: Its IC50 is 8.36 µM.

Question: What about the IC50 [1] of the same molecule?
Answer: The IC50 was > 20 µM.

Question: What about the melting point of the same molecule?
Answer: The melting point was 113 to 115 °C.

Question: For `CCCCCCNc1cccc2c1C(=O)c1cccc(NCCCCCC)c1C2=O` [IVn, 1,5-Bis(hexylamino)-anthraquinone], which melting point is on record?
Answer: Its melting point is 142 to 144 °C.

Question: For `CC1CCCC(Nc2cccc3c2C(=O)c2cccc(NC4CCCC(C)C4C)c2C3=O)C1C` (stereo not shown) [IVp, 1,5-Bis(2,3-dimethylcyclohexylamino)-anthraquinone], which melting point is on record?
Answer: The melting point was 188 to 190 °C.

Question: With `O=C1c2cccc(NCc3ccccc3)c2C(=O)c2cccc(NCc3ccccc3)c21` [IVr, 1,5-Bis(benzylamino)-anthraquinone] as the molecule, how does the IC50 (human hepatoma G2 cells) read?
Answer: The IC50 was > 20 µM.

Question: And the IC50 (rat glioma C6 cells)?
Answer: The IC50 was > 20 µM.

Question: And the IC50 [1]?
Answer: The IC50 was > 20 µM.

Question: And the melting point?
Answer: The melting point was 218 to 220 °C.

Question: With `O=C1c2cccc(NCCc3ccccc3)c2C(=O)c2cccc(NCCc3ccccc3)c21` [IVs, 1,5-Bis(phenylethylamino)-anthraquinone] as the molecule, how does the IC50 (human hepatoma G2 cells) read?
Answer: The IC50 was > 20 µM.

Question: And the IC50 (rat glioma C6 cells)?
Answer: Its IC50 is > 20 µM.

Question: And the IC50 [1]?
Answer: The IC50 was > 20 µM.

Question: What about the activity at 2.2 µM ([2]; 2.2 μM) of the same molecule?
Answer: The activity at 2.2 µM was 115 ± 12.9%.

Question: And the activity at 22 µM ([2]; 22 μM)?
Answer: The activity at 22 µM was 103 ± 12.3%.

Question: What about the activity at 223 µM ([2]; 223 μM) of the same molecule?
Answer: Its activity at 223 µM is 133 ± 23.8%.

Question: And the activity at 2.2 µM ([3]; Homo sapiens, NCI-H1299, 2.2 μM, hTERT-H1299, read-out: Relative SEAP activity (%))?
Answer: The activity at 2.2 µM was 105 ± 3%.

Question: And the activity at 22 µM ([3]; Homo sapiens, NCI-H1299, 22 μM, hTERT-H1299, read-out: Relative SEAP activity (%))?
Answer: The activity at 22 µM was 103 ± 9.5%.

Question: What about the activity at 223 µM ([3]; Homo sapiens, NCI-H1299, 223 μM, hTERT-H1299, read-out: Relative SEAP activity (%)) of the same molecule?
Answer: The activity at 223 µM was 96 ± 2.9%.

Question: What about the melting point of the same molecule?
Answer: The melting point was 205 to 207 °C.

Question: And the viability at 48 h, 2.2 µM [4]?
Answer: The viability at 48 h, 2.2 µM was 94 ± 5.2%.

Question: And the viability at 48 h, 22 µM [4]?
Answer: Its viability at 48 h, 22 µM is 97 ± 3.2%.

Question: What about the viability at 48 h, 223 µM [4] of the same molecule?
Answer: Its viability at 48 h, 223 µM is 77 ± 4.2%.

Question: What about the viability at 48 h, 2.2 µM [5] of the same molecule?
Answer: Its viability at 48 h, 2.2 µM is 97 ± 4%.

Question: And the viability at 48 h, 22 µM [5]?
Answer: The viability at 48 h, 22 µM was 92 ± 1%.

Question: And the viability at 48 h, 223 µM [5]?
Answer: Its viability at 48 h, 223 µM is 81 ± 4.7%.

Question: With `O=C1c2c(O)ccc(O)c2C(=O)c2c(NCCNCCO)ccc(NCCNCCO)c21` [Mitoxantrone, reference compound] as the molecule, how does the IC50 (human hepatoma G2 cells) read?
Answer: The IC50 was 2 ± 0.5 µM.

Question: And the IC50 (rat glioma C6 cells)?
Answer: Its IC50 is 0.07 ± 0.01 µM.

Question: What about the IC50 [1] of the same molecule?
Answer: Its IC50 is 0.4 µM.

Question: What about the activity at 1.9 µM ([2]; 1.9 μM) of the same molecule?
Answer: Its activity at 1.9 µM is 30 ± 5.8%.

Question: And the activity at 19 µM ([2]; 19 μM)?
Answer: Its activity at 19 µM is 13 ± 9.2%.

Question: And the activity at 193 µM ([2]; 193 μM)?
Answer: Its activity at 193 µM is 4 ± 14.2%.

Question: What about the SEAP/vibility ([3]; 1.9 μM, PhTERT-SEAP(hTERT-H1299)) of the same molecule?
Answer: Its SEAP/vibility is 0.82.

Question: And the SEAP/vibility ([3]; 19 μM, PhTERT-SEAP(hTERT-H1299))?
Answer: Its SEAP/vibility is 1.16.

Question: And the SEAP/vibility ([3]; 193 μM, PhTERT-SEAP(hTERT-H1299))?
Answer: The SEAP/vibility was 1.21.

Question: What about the activity at 1.9 µM ([3]; Homo sapiens, NCI-H1299, 1.9 μM, PhTERT-SEAP(hTERT-H1299), read-out: Relative SEAP activity (%)) of the same molecule?
Answer: The activity at 1.9 µM was 81 ± 3.8%.

Question: What about the activity at 19 µM ([3]; Homo sapiens, NCI-H1299, 19 μM, PhTERT-SEAP(hTERT-H1299), read-out: Relative SEAP activity (%)) of the same molecule?
Answer: Its activity at 19 µM is 66 ± 4%.

Question: And the activity at 193 µM ([3]; Homo sapiens, NCI-H1299, 193 μM, PhTERT-SEAP(hTERT-H1299), read-out: Relative SEAP activity (%))?
Answer: Its activity at 193 µM is 47 ± 3.9%.

Question: And the viability at 48 h, 1.9 µM [4]?
Answer: The viability at 48 h, 1.9 µM was 100 ± 5.6%.

Question: And the viability at 48 h, 19 µM [4]?
Answer: The viability at 48 h, 19 µM was 57 ± 4.3%.

Question: And the viability at 48 h, 193 µM [4]?
Answer: The viability at 48 h, 193 µM was 39 ± 3.2%.

Question: What about the viability at 48 h, 1.9 µM [5] of the same molecule?
Answer: Its viability at 48 h, 1.9 µM is 75 ± 2.9%.

Question: What about the viability at 48 h, 19 µM [5] of the same molecule?
Answer: Its viability at 48 h, 19 µM is 56 ± 3.1%.

Question: What about the viability at 48 h, 193 µM [5] of the same molecule?
Answer: Its viability at 48 h, 193 µM is 10 ± 2%.

Question: And the “Inhibition of LP(10 mM)” value ([6]; mean percent inhibition (Table 3))?
Answer: The value was >100%.

Question: What about the “LP (%) (10 mM)” value ([6]; relative percentage of inhibition (Table 1)) of the same molecule?
Answer: The value was 54 ± 1.5%.

Question: For `CCC(=O)Nc1cccc2c1C(=O)c1cccc(NC(=O)CC)c1C2=O` [VIIb, 1,5-bis-(methylacetamido)-9,10-anthracenedione], which melting point is on record?
Answer: The melting point was 321 °C.

Question: With `CC(Cl)C(=O)Nc1cccc2c1C(=O)c1cccc(NC(=O)C(C)Cl)c1C2=O` (stereo not shown) [VIId, 1,5-bis-(2-chloropropionamido)-9,10-anthracenedione] as the molecule, how does the melting point read?
Answer: Its melting point is 288 to 289 °C.

Question: What does the source list for `NCCCCCNc1cccc2c1C(=O)c1c(NCCCCCN)cccc1C2=O` [Vm, 1,8-Bis(aminopentylamino)-anthraquinone]?
Answer: IC50 (human hepatoma G2 cells): 0.09 µM; IC50 (rat glioma C6 cells): 0.11 ± 0.01 µM; IC50 [1]: 1.29 µM; melting point: 115 to 116 °C
